Measurements taken from PMC11240924, “Isolation, Identification, and Biological Activities of a New Chlorin e6 Derivative” (International Journal of Molecular Sciences, 2024).

Tests used:
PANC-1 = assay: MTT cytotoxicity (PDT and dark), PANC-1; format: cell-based, Human; conditions: Homo sapiens, light or radiation study, 3 h exposure, 660 nm laser 0.5 J/cm^2, MTT after 24 h
Excerpt: (§1) B16F10 (KCLB80008), MIA PaCa-2 (KCLB21420), PANC-1 (KCLB21469), HT-29 (KCLB30038), AsPC-1 (KCLB21682), and Raw 264.7 (KCLB40071) cells were procured from the Korean Cell Line Bank (KCLB, Seoul, Republic of Korea). AsPC-1 and RAW264.7 were thawed and maintained in RPMI-1640 media (Life Technologies corporation, Carlsbad, CA, USA) supplemented with 10% fetal bovine serum (Life Technologies corporation, USA) and 1% penicillin and streptomycin (Life Technologies corporation, USA), while MIA PaCa-2, PANC-1, HT-29, and B16F10 cell lines were cultured in DMEM (Life technologies corporation, USA) containing 10% fetal bovine serum and 1% penicillin and streptomycin. All the cells were cultured at 37 °C in a 5% CO2 incubator.
(§2) After seeding B16F10 or MIA PaCa-2 at a density of 5 × 10^3 cells/well and PANC-1, HT-29, or AsPC-1 at a density of 1 × 10^4 cells/well in 96-well plates, the cells were incubated overnight at 37 °C in a CO2 incubator. The cells were exposed to different doses of either chlorin e6 or rhodin g7 7^1-ethyl ester (0, 2.5, 5, 10, 20, 40, and 80 µM) for 3 h. After the incubation, the cells were either subjected to a 660 nm laser with a power density of 50 mW (0.5 J/cm^2) or not and were further incubated for 24 h at 37 °C. Moreover, the MTT assay was used to analyze the cell viability. The absorbance values of 540 nm were then measured using a microplate reader (Multiskan GO, Thermo Fisher Scientific, Oy, Ratastie 2, FI-01620 Vantaa, Finland).

[1] = MTT cytotoxicity (PDT and dark), PANC-1; format: cell-based, Human; conditions: human, PANC-1 cells, no illumination, MTT after 24 h
Excerpt: as §1, §2

MIA PaCa-2 = assay: MTT cytotoxicity (PDT and dark), MIA PaCa-2; format: cell-based, Human; conditions: Homo sapiens, light or radiation study, 3 h exposure, 660 nm laser 0.5 J/cm^2, MTT after 24 h
Excerpt: as §1, §2

[2] = MTT cytotoxicity (PDT and dark), MIA PaCa-2; format: cell-based, Human; conditions: human, MIA PaCa-2 cells, no illumination, MTT after 24 h
Excerpt: as §1, §2

AsPC-1 = assay: MTT cytotoxicity (PDT and dark), AsPC-1; format: cell-based, Human; conditions: Homo sapiens, ASPC1, light or radiation study, 3 h exposure, 660 nm laser 0.5 J/cm^2, MTT after 24 h
Excerpt: as §1, §2

[3] = MTT cytotoxicity (PDT and dark), AsPC-1; format: cell-based, Human; conditions: human, AsPC-1 cells, no illumination, MTT after 24 h
Excerpt: as §1, §2

HT29 = assay: MTT cytotoxicity (PDT and dark), HT29; format: cell-based, Human; conditions: Homo sapiens, HT-29, light or radiation study, 3 h exposure, 660 nm laser 0.5 J/cm^2, MTT after 24 h
Excerpt: as §1, §2

[4] = MTT cytotoxicity (PDT and dark), HT29; format: cell-based, Human; conditions: human, HT-29 cells, no illumination, MTT after 24 h
Excerpt: as §1, §2

B16F10 = assay: MTT cytotoxicity (PDT and dark), B16F10; format: cell-based, Murine; conditions: Mus musculus, B16-F10, light or radiation study, 3 h exposure, 660 nm laser 0.5 J/cm^2, MTT after 24 h
Excerpt: as §1, §2

[5] = MTT cytotoxicity (PDT and dark), B16F10; format: cell-based, Murine; conditions: mouse, B16F10 cells, no illumination, MTT after 24 h
Excerpt: as §1, §2

MIA PaCa-2 cells = assay: Cellular uptake (plate reader and FOBI), MIA PaCa-2; format: cell-based, Human; conditions: 3 h; for fluorescence intensity of treated cells compared to control (uptake): MIA PaCa-2, 100 μΜ
Description: (§3) A quantitly of 5 × 10^5 of MIA PaCa-2 and 2 × 10^5 of BV2 cells per well were seeded in a 6-well plate and were treated with or without chlorin e6 or rhodin g7 7^1-ethyl ester (10 and 100 μΜ). After 3 h, the cells were harvested and washed twice with 1 × phosphate buffered saline (DPBS) to remove the remaining chlorin e6 or rhodin g7 7^1-ethyl ester from the culture media and cell surfaces. The cells from each well were resuspended in 1 mL of 1 × DPBS and measured using FOBI and a plate reader. chlorin e6 or rhodin g7 7^1-ethyl ester-treated cells were divided into triplicate wells of a black-walled 96-well plate, each containing 100 µL. The measurement was taken immediately after aliquoting using a Spark Multimode Microplate Reader (Tecan Trading AG, Männedorf, Switzerland) for spectroscopy. The fluorescence was measured using excitation and emission peaks of 405 nm and 500–800 nm. For the FOBI analysis, 700 µL of chlorin e6 or rhodin g7 7^1-ethyl ester-treated cells was added to the e-tubes, and bioimaging was performed immediately using the fluorescence-labeled organism bioimaging instrument (FOBI) system (Cellgentek, Daejeon, Republic of Korea). Each image was exposed for 0.3 s, with a 405 nm wavelength LED, and an emmission light of 502 nm. The results were further quantitatively measured using the “NEOimage FOBI” software.

MIA-PaCa-2 cells = assay: Detection of ROS with DCFH-DA after PDT; format: cell-based, Human; conditions: for ROS level after PDT (DCFH-DA): MIA-PaCa-2, 1, 5, 10, 20, 40, and 80 μM, 3 h, laser
Description: MIA-PaCa-2 cells (density: 5 × 10^3 cells/well) were seeded onto 96-well plates and incubated in a complete medium for 24 h at 37 °C. Then, the medium was replaced with a fresh culture medium containing chlorin e6 or rhodin g7 7^1-ethyl ester at different concentrations (1, 5, 10, 20, 40, and 80 μM) and then incubated for 3 h at 37 °C. After incubation, the cells were washed three times with PBS, and the cells were irradiated using a 630 nm laser at a power of 100 mW/cm^2 for 300 s. After irradiation, a fresh culture medium containing 20 μM dichlorodihydrofluorescin diacetate (DCFH-DA) was added, and the cells were incubated for another 20 min. Fluorescence detection of DCFH-DA was performed via the fluorescence microplate reader using the Spark Multimode Microplate Reader (Tecan Trading AG, Männedorf, Switzerland).

[6] = MTT cytotoxicity (PDT and dark), RAW264.7 normal cell line; format: cell-based, Murine; conditions: mouse, RAW264.7 cells (normal macrophage), RAW264.7 normal macrophage
Excerpt: as §1, §2

BV2 cells = assay: Cellular uptake (plate reader and FOBI), BV2; format: cell-based; conditions: 3 h; for fluorescence intensity of treated cells compared to control (uptake): BV2, 100 μΜ
Description: as §3

[7] = 660 nm laser 0.5 J/cm^2, MTT after 24 h, read-out: IC50, PDT cytotoxicity
[8] = no illumination, MTT after 24 h, read-out: IC50, dark cytotoxicity

## C=Cc1c(C)c2cc3nc(c(CC(=O)O)c4[nH]c(cc5nc(cc1[nH]2)C(C(=O)OCC)=C5CC)c(C)c4C(=O)O)[C@@H](CCC(=O)O)[C@@H]3C [rhodin g7 7^1-ethyl ester]
PANC-1
  IC50: 8.4 µM
[1]
  IC50: 279 µM
MIA PaCa-2
  IC50: 7.6 µM
[2]
  IC50: 161 µM
AsPC-1
  IC50: 49.1 µM
[3]
  IC50: 395 µM
HT29
  IC50: 30.1 µM
[4]
  IC50: 223 µM
B16F10
  IC50: 12.3 µM
[5]
  IC50: 262 µM
MIA PaCa-2 cells
  fluorescence intensity of treated cells compared to control (uptake): significant increase in fluorescence intensity
MIA PaCa-2 cells; MIA PaCa-2, FOBI system, 10 μΜ
  fluorescence intensity relative to chlorin e6 (uptake): 1.02 times
MIA PaCa-2 cells; MIA PaCa-2, FOBI system, 100 μΜ
  fluorescence intensity relative to chlorin e6 (uptake): 1.3 times
MIA PaCa-2 cells; MIA PaCa-2, plate reader, 10 μΜ
  fluorescence intensity relative to chlorin e6 (uptake): 3 times
MIA PaCa-2 cells; MIA PaCa-2, plate reader, 100 μΜ
  fluorescence intensity relative to chlorin e6 (uptake): 1.4 times
MIA-PaCa-2 cells
  ROS level after PDT (DCFH-DA): dose-dependent increase in ROS
MIA-PaCa-2 cells; MIA-PaCa-2, all concentrations (1-80 μM)
  ROS production compared to chlorin e6-PDT: likely to produce more ROS than chlorin e6-PDT
[6]; [7]
  IC50: 55.2 µM
[6]; [8]
  IC50: 466 µM
BV2 cells
  fluorescence intensity of treated cells compared to control (uptake): significant increase in fluorescence intensity
BV2 cells; BV2, FOBI system, 10 μΜ
  fluorescence intensity relative to chlorin e6 (uptake): 1.1 times
BV2 cells; BV2, FOBI system, 100 μΜ
  fluorescence intensity relative to chlorin e6 (uptake): 1.4 times
BV2 cells; BV2, plate reader, 10 μΜ
  fluorescence intensity relative to chlorin e6 (uptake): 2.2 times
BV2 cells; BV2, plate reader, 100 μΜ
  fluorescence intensity relative to chlorin e6 (uptake): 2 times

## C=Cc1c(C)c2cc3nc(c(CC(=O)O)c4[nH]c(cc5nc(cc1[nH]2)C(C)=C5CC)c(C)c4C(=O)O)[C@@H](CCC(=O)O)[C@@H]3C [chlorin e6]
PANC-1
  IC50: 17.9 µM
[1]
  IC50: 302 µM
MIA PaCa-2
  IC50: 23.3 µM
[2]
  IC50: 430 µM
AsPC-1
  IC50: 30.4 µM
[3]
  IC50: 248 µM
HT29
  IC50: 28.1 µM
[4]
  IC50: 543 µM
B16F10
  IC50: 33.6 µM
[5]
  IC50: 556 µM
MIA PaCa-2 cells
  fluorescence intensity of treated cells compared to control (uptake): significant increase in fluorescence intensity
MIA-PaCa-2 cells
  ROS level after PDT (DCFH-DA): dose-dependent increase in ROS
[6]; [7]
  IC50: 45.4 µM
[6]; [8]
  IC50: 456 µM
BV2 cells
  fluorescence intensity of treated cells compared to control (uptake): significant increase in fluorescence intensity
